Assay results reported in patent US20100303916A1, “ENHANCED DRUG DELIVERY WITH ORIENTABLE PARTICLES” (THE GOVERNORS OF THE UNIVERSITY OF ALBERTA, priority 2007, published 2010).

Experiment: Aerosol particle size distribution and number concentration by SEM
Type: physicochemical
Conditions: mean ± SD, n = 9 SEM images
Method: The particle size distribution and number concentration of the CA and CA/magnetite aerosols were determined from samples taken from the delivery apparatus used for the aerosol deposition experiments. Suspensions of CA and CA/magnetite were nebulized, and drawn by vacuum pump along with ambient, drying air at 10 l/min. into a large volume (˜16 1) delivery chamber for 1.5 minutes. With reference to FIG. 5, after filling the delivery chamber 40 with aerosol, valves 46, 48 connecting to the nebulizer 42 and the vacuum pump 44, respectively, were closed, and a butterfly valve 50 at the base 52 of the chamber 40 was opened. Aerosol was then sampled from the base 52 of the chamber 40 onto a 0.2 μm pore polycarbonate membrane (Isopore GTTP04700; Millipore, Billerica, Mass., not shown) for 1 hour at a flow rate of 0.21 l/min., maintained through the delivery chamber using dry, compressed air and a needle valve, and monitored using a low flow rate rotameter (FL-2010; OMEGA Canada, Laval, QC). Over the period of the sampling, the needle valve was adjusted as required to hold the flow rate to within 0.21±0.02 l/min.
After collecting aerosol from the delivery chamber, samples of the polycarbonate membranes were prepared for analysis by scanning electron microscopy (SEM) (S-2500; Hitachi, Japan). For both the CA and CA/magnetite aerosols, three pieces were cut from the membrane, from locations chosen at random, and mounted to SEM stubs using two-sided carbon adhesive tabs. These samples were sputter coated with a thin layer of gold prior to SEM analysis. Images of the samples were taken at 3000× magnification, again from locations chosen at random, and stored digitally.
For three SEM images from each of the three membrane samples, the length and diameter of each particle was manually measured using digital image analysis software (Scion Image; Scion Corporation, Frederick, Md.). The particles were assumed to lie parallel to the face of the membrane. Particle sizing rules were similar to those established for asbestos samples by Platek et al. (1992). Each particle was marked immediately after being sized so as to avoid sizing the same particle twice. Where a particle was not perfectly straight, its length was measured as the arc length along its central axis from one tip to the other. Diameter was measured perpendicular to the central axis at the midpoint along a particle's length, except in rare cases where the particle had two regions of clearly different diameter. In these latter cases, an average of the two diameters was taken. Overlapping particles were sized separately only if both ends of each particle were clearly visible.
After sizing, the volume of each particle was calculated, under the approximation that the particles were cylindrical. Volume-weighted size distributions were then fit with lognormal curves by nonlinear regression to yield a volume median length (VML), volume median diameter (VMD), and geometric standard deviations in both length and diameter (σL and σD), respectively) for each SEM image. In addition, the particle number concentration in the sampled air was calculated for each image from the volume of sampled air, and the ratio between the image area and the total area of the membrane exposed to the aerosol. The mean values of these parameters for the three different membrane samples were compared by one-way ANOVA for independent samples in order to gauge their variation over different locations on the membrane.

O=C(O)c1cc(=O)c2c(OCC(O)COc3cccc4oc(C(=O)O)cc(=O)c34)cccc2o1 [CA, cromoglycic acid]
VMD (volume median diameter) (aerosol sampled from delivery chamber): 0.34 ± 0.02 μm | N (number of particles per unit volume of sampled air): (2.0 ± 0.3) × 10^4 cm^−3 | VML (volume median length): 2.0 ± 0.4 μm | σD (geometric standard deviation for diameter): 1.5 ± 0.1 | σL (geometric standard deviation for length): 2.1 ± 0.1
